Our source for the IC50, melting point and isolated as metabolite values is patent publication US6803372B2, “Spiro compounds” (Banyu Pharmaceutical Co., Ltd., priority 1999, dated 2004).

Molecules are shown by their SMILES. Bounds are passed on as bounds.

The target in one data set is T1, human NPY Y5 receptor (Homo sapiens, UniProt Q15761).
T1 construct: expressed in transfected cells; host or cells: COS-7, CHO and LM(tk-)
T1 sequence (Q15761 1-445): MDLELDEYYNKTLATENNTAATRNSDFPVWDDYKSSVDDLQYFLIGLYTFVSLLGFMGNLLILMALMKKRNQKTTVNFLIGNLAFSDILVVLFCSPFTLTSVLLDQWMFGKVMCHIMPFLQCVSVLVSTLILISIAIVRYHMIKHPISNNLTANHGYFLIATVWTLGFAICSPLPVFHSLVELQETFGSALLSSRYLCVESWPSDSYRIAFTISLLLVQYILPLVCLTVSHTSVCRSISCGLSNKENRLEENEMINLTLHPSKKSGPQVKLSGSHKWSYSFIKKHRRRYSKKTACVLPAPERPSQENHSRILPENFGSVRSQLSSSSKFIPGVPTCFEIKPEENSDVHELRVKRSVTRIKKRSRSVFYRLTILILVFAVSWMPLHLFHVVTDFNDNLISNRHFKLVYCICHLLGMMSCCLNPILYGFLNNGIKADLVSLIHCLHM
Nature of the data set: NPY binding inhibition test (Pharmacological Test 1). The settings on record: [125I]peptideYY, membrane sample from cells expressing NPY Y5 receptor, 25° C., 2 hours; read-out: IC50 of the test compound against specific peptideYY binding. From the text:
Pharmacological Test 1 (NPY Binding Inhibition Test)
cDNA sequence encoding human NPY Y5 receptor [International patent publication number WO96/16542] was cloned into expression vectors pcDNA3, pRc/RSV (made by Invitrogen Inc.) and pCI-neo (made by Promega Inc.). This obtained expression vectors were transfected to host cells COS-7, CHO and LM(tk-) (American Type Culture Collection) by cationic lipid method [Proceedings of the National Academy of Sciences of the United States of America, 84: 7413(1987)] to give NPY Y5 receptor expression cells.
A membrane sample prepared from the cells which expressed NPY Y5 receptor was incubated together with a test compound and [^125I]peptideYY (NEN) (20,000 cpm) in an assay buffer (25 mM Tris buffer, pH7.4, containing 10 mM magnesium chloride, 1 mM phenylmethylsulfonyl fluoride, 0.1% bacitracin and 0.5% bovine serum albumin) at 25° C. for 2 hours, then filtered through a glass filter GF/C and washed with 5 mM Tris buffer (pH7.4) containing 0.3% BSA. The radioactivity of the cake on the glass filter was measured. Nonspecific binding was measured in the presence of 1 μM peptideYY and a 50% Inhibitory Concentration (IC50) of the test compound against specific peptideYY binding was determined [Endocrinology, 131: 2090(1992)].

Data set [1] is described as follows: Isolation of metabolites of compound of example 101. The following applies: parent: compound of example 101.

Consider `O=C1Cc2ccccc2C2(CCN(C(=O)Nc3cn(-c4ccc5ccccc5n4)cn3)CC2)N1` [Example 9, 3,4-Dihydro-3-oxo-N-[1-(2-quinolyl)-4-imidazolyl]spiro[isoquinoline-1(2H),4′-piperidine]-1′-carboxamide], for which the melting point is 264 to 266 °C. In addition, the IC50 at human NPY Y5 receptor is 0.72 nM.
`O=C1OC2(CCN(C(=O)Nc3ccc4ncc(C(F)(F)F)cc4n3)CC2)c2ccccc21` [Example 26, 3-Oxo-N-(7-trifluoromethylpyrido[3,2-b]pyridin-2-yl)-spiro[isobenzofuran-1(3H),4′-piperidine]-1′-carboxamide] displayed a melting point of 246 to 248 °C. Also, on human NPY Y5 receptor, the IC50 was determined as 2.5 nM.
`O=C1OC2(CCC(O)(C(=O)Nc3ccn(-c4ccccc4F)n3)CC2)c2cnccc21` (stereo not drawn) [Example 109, cis-N-[1-(2-fluorophenyl)-3-pyrazolyl]-4′-hydroxy-3-oxospiro[6-azaisobenzofuran-1(3H),1′-cyclohexane]-4′-carboxamide]: in data set [1], the isolated as metabolite entry is “isolated as metabolites of compound of example 101”.
Turning to `O=C(c1ccccc1)c1ccc(NC(=O)N2CCC3(CC2)NC(=O)c2ccccc23)cc1` [Example 1, N-(4-benzoylphenyl)-3-oxospiro[isoindoline-1,4′-piperidine]-1′-carboxamide], the IC50 at human NPY Y5 receptor came out at 1.2 nM.
Molecule `O=C1OC2(CCC(C(=O)Nc3cn(-c4cnc5ccccc5c4)cn3)CC2)c2ccccc21` (stereo not drawn) [Example 55, Trans-3′-oxo-N-[1-(3-quinolyl)-4-imidazolyl]spiro[cyclohexane-1,1′(3′H)-isobenzofuran]-4-carboxamide] registered a melting point of more than 300 °C. For the same molecule, on human NPY Y5 receptor, the IC50 was 0.59 nM.
As for `O=C1OC2(CCC(C(=O)Nc3ccn(-c4ccccc4F)n3)CC2)c2c[n+]([O-])ccc21` (stereo not drawn) [Example 107, trans-N-[1-(2-fluorophenyl)-3-pyrazolyl]-3-oxospiro[6-azaisobenzofuran-1(3H),1′-cyclohexane]-4′-carboxamide 6-oxide], the IC50 on human NPY Y5 receptor was 4.6 nM. In addition, in data set [1], the isolated as metabolite result was “isolated as metabolites of compound of example 101”.
On the same counts, the results for `O=C1OC2(CCC(C(=O)Nc3ccn(-c4ccc(O)cc4F)n3)CC2)c2cnccc21` (stereo not drawn) [Example 108, trans-N-[1-(2-fluoro-4-hydroxyphenyl)-3-pyrazolyl]-3-oxospiro[6-azaisobenzofuran-1(3H),1′-cyclohexane]-4′-carboxamide] are 3 nM and “isolated as metabolites of compound of example 101”.
